Patent US9730447B2, “Fungicidal amides” (E I DU PONT DE NEMOURS AND COMPANY, priority 2013, dated 2017)
Marks after values point to notes of the source that are not given here.

Assays:
Assay type in all cases: in vivo
[1] = tested on: Puccinia recondite f. sp. tritici; assay: Test D: preventive spray on wheat seedlings, Puccinia recondite f. sp. tritici (wheat leaf rust), visual disease rating
Excerpt: (§1) General protocol for preparing test suspensions for Tests A-E: the test compounds were first dissolved in acetone in an amount equal to 3% of the final volume and then suspended at the desired concentration (in ppm) in acetone and purified water (50/50 mix by volume) containing 250 ppm of the surfactant Trem® 014 (polyhydric alcohol esters). The resulting test suspensions were then used in Tests A-E. Compounds were sprayed with either a 40 ppm or 10 ppm (*) test suspension to the point of run-off on the test plants which is the equivalent of a rate of 160 g ai/ha or 40 g ai/ha, respectively.
The test suspension was sprayed to the point of run-off on wheat seedlings. The following day the seedlings were inoculated with a spore suspension of Puccinia recondite f. sp. tritici; (the causal agent of wheat leaf rust) and incubated in a saturated atmosphere at 20° C. for 24 h, and then moved to a growth chamber at 20° C. for 6 days, after which time visual disease ratings were made.
(§2) Results for Tests A-E are given in Table A. In the Table, a rating of 100 indicates 100% disease control and a rating of 0 indicates no disease control (relative to the controls). A dash (-) indicates no test results.

[2] = tested on: Erysiphe graminis f. sp. tritici; assay: Test E: preventive spray on wheat seedlings, Erysiphe graminis f. sp. tritici (wheat powdery mildew), visual disease rating
Excerpt: as §1
The test suspension was sprayed to the point of run-off on wheat seedlings. The following day the seedlings were inoculated with a spore dust of Erysiphe graminis f. sp. tritici, (the causal agent of wheat powdery mildew) and incubated in a growth chamber at 20° C. for 8 days, after which time visual disease ratings were made.
as §2

Septoria tritici = assay: Test C: preventive spray on wheat seedlings, Septoria tritici (wheat leaf blotch), visual disease rating
Excerpt: as §1
The test suspension was sprayed to the point of run-off on wheat seedlings. The following day the seedlings were inoculated with a spore suspension of Septoria tritici (the causal agent of wheat leaf blotch) and incubated in a saturated atmosphere at 24° C. for 48 h, and then moved to a growth chamber at 20° C. for 21 days, after which time visual disease ratings were made.
as §2

[3] = 100 = 100% disease control, 0 = no control, unmarked values
[4] = values marked with asterisk (*), meaning not given

| SMILES | Test D disease control rating [1, 3] [%] | Test E disease control rating [2, 3] [%] | Test D disease control rating [1, 4] | Test E disease control rating [2, 4] | Test C disease control rating (Septoria tritici; [4]) | Test C disease control rating (Septoria tritici; [3]) [%] |
| --- | --- | --- | --- | --- | --- | --- |
| N#Cc1cc(-c2ccccc2NC(=O)c2nccnc2Cl)cnc1-n1ccc(C(F)(F)F)n1 [compound 108] | 96 | 87 | – | – | – | – |
| N#Cc1cc(-c2ccccc2NC(=O)c2sccc2I)cnc1-n1ccc(C(F)(F)F)n1 [compound 143] | – | – | 100* % | 64* % | 100* % | – |
| O=C(Nc1ccccc1-c1cnc(-n2ccc(C(F)(F)F)n2)c(Cl)c1)c1ccsc1Br [compound 139] | – | – | 100* % | 40* % | 98* % | – |
| Cc1sccc1C(=O)Nc1ccccc1-c1cnc(-n2ccc(C(F)(F)F)n2)c(Cl)c1 [compound 138] | – | – | 100* % | 64* % | 99* % | – |
| Cn1cc(C(=O)Nc2ccccc2-c2cnc(-n3ccc(C(F)(F)F)n3)c(C#N)c2)c(C(F)F)n1 [compound 106] | 100 | 98 | – | – | – | – |
| Cn1cc(C(=O)Nc2ccccc2-c2cnc(-n3cnc(C(F)(F)F)c3)c(F)c2)c(C(F)F)n1 [compound 153] | – | – | 99* % | 40* % | 99* % | – |
| CCOC(=O)C1CC(c2ccc(-c3ccccc3NC(=O)c3cn(C)nc3C(F)F)cn2)=NO1 (centres unmarked) [compound 110] | 68 | 0 | – | – | – | 22 |
| CSc1ccsc1C(=O)Nc1ccccc1-c1cnc(-n2ccc(C(F)(F)F)n2)c(Cl)c1 [compound 141] | – | – | 97* % | 0* % | 76* % | – |
| O=C(Nc1ccccc1-c1cnc(-n2ccc(C(F)(F)F)n2)c(Cl)c1)c1cccs1 [compound 111] | – | – | 84* % | 0* % | 63* % | – |
| Cc1occc1C(=O)Nc1ccccc1-c1cnc(-n2ccc(C(F)(F)F)n2)c(Cl)c1 [compound 118] | – | – | 68* % | 0* % | 42* % | – |
| CCOC(=O)C1(C)CC(c2ccc(-c3ccccc3NC(=O)c3cn(C)nc3C(F)F)cn2)=NO1 (centres unmarked) [compound 109] | 74 | 0 | – | – | – | 66 |
| Cc1nc(C(F)(F)F)c(C(=O)Nc2ccccc2-c2cnc(-n3ccc(C(F)(F)F)n3)c(C#N)c2)s1 [compound 107] | 99 | 43 | – | – | – | – |
| Cn1ncnc1C(=O)Nc1ccccc1-c1cnc(-n2ccc(C(F)(F)F)n2)c(Cl)c1 [compound 129] | – | – | 17* % | 0* % | 88* % | – |
| Cc1oncc1C(=O)Nc1ccccc1-c1cnc(-n2ccc(C(F)(F)F)n2)c(Cl)c1 [compound 128] | – | – | 67* % | 13* % | 42* % | – |
| O=C(Nc1ccccc1-c1cnc(-n2ccc(C(F)(F)F)n2)c(Cl)c1)c1ccsc1Cl [compound 120] | – | – | 100* % | 0* % | 98* % | – |
| Cc1cc(C)c(C(=O)Nc2ccccc2-c2cnc(-n3ccc(C(F)(F)F)n3)c(Cl)c2)s1 [compound 116] | – | – | 99* % | 64* % | 99* % | – |
| Cc1ncsc1C(=O)Nc1ccccc1-c1cnc(-n2ccc(C(F)(F)F)n2)c(Cl)c1 [compound 164] | – | – | 91* % | 69* % | 96* % | – |
| O=C(NCCc1ncc(-n2ccc(C(F)(F)F)n2)cn1)c1ccccc1C(F)(F)F [Compound 177] | 0 | 79 | – | – | – | 91 |
| N#Cc1cc(-c2ccccc2NC(=O)c2ncccc2C(F)(F)F)cnc1-n1ccc(C(F)(F)F)n1 [compound 105] | 100 | 81 | – | – | – | – |
